Experimental findings from patent US20180071354A1, “SELECTIVE BREEDING METHOD OF ANTITUMOR/ANTICANCER CAMELLIA SINENSIS STRAIN, AND TEA PRODUCT OF SUCH STRAIN” (FUJIAN AGRICULTURE AND FORESTRY UNIVERSITY, priority 2015, published 2018) are described below.

Experiment [1] concerns human liver cancer cell line HepG2. Put plainly: In vitro antitumor/anticancer testing (CCK-8), HepG2. It is filed as cell-based. Particulars: 48 h. As for the experimental part:
Each of Tea Product 1 and Conventional Tea Product obtained in section A of this example was used to prepare test tea samples according to the method described below. A proper amount of the respective tea product was added into sterile water to prepare a stock solution with a concentration of 100 mg/mL, followed by using a membrane filter with a pore size of 0.22 μm to conduct vacuum filtration and sterilization. The resulting stock solution was diluted with a respective complete medium shown in Table 3 below to form test tea samples with different concentrations. In other words, the thus obtained test tea samples to be used for treating a respective cancer/tumor cell line shown in Table 3 were prepared using the same complete medium as that for the respective cancer/tumor cell line.
Specifically, each of the aforesaid commercially available agents was subjected to the method described below to prepare comparative test samples. A proper amount of a respective commercially available agent was dissolved in phosphate-buffered saline (PBS) to prepare a stock solution with a concentration of 5 mg/mL, followed by using a membrane filter with a pore size of 0.22 μm to conduct vacuum filtration and sterilization. The resulting stock solution was diluted with a respective complete medium shown in Table 3 below to form comparative test samples with different concentrations. To be specific, the comparative test samples prepared from the respective commercially available agent have the concentrations shown in Table 2 below. The thus obtained comparative test samples to be used for treating a respective cancer/tumor cell line shown in Table 3 were prepared using the same complete medium as that for the respective cancer/tumor cell line.
The following cancer/tumor cells purchased from Chinese Academy of Sciences, Shanghai Institutes for Biological Sciences, Institute of Biochemistry and Cell Biology were used for in vitro antitumor/anticancer testing: human liver cancer cell line HepG2, human ovarian cancer cell line SK-OV-3, human cervical cancer cell line Hela, human lung cancer cell line A549, human glioblastoma cell line U-87MG, human mammary gland/duct cancer cell line BT-474, human prostate cancer cell line PC-3, human leukemia cell line HL-60, human gastric cancer cell line SMMC-7721, human colon cancer cell line HCT-116, human squamous cell carcinoma cell line A431, human leukemia cell line K562, human pancreatic cancer cell line PANC-1, and human gastric cancer cell line BGC-823.
The cultivation of each cancer/tumor cell line is described as follows. The cancer/tumor cancer cells were cultivated in the respective complete medium supplemented with 100 μg/mL penicillin and 100 μg/mL streptomycin in an incubator (37° C., 100% relative humidity, 5% CO2). When adherent cancer/tumor cells reached 80% confluence during the log-phase, cell detachment was conducted using 0.6 mL of 0.3% trypsin. Afterwards, a cell suspension having a cell density of 1.0×10^4 cells/mL was prepared. 100 μL of the cell suspension (i.e. 1000 cancer/tumor cells) was added into wells of a 96-well plate (Cat. No. 3599, Corning Costar), followed by cultivation in an incubator (37° C., 100% relative humidity, 5% CO2) for 24 hours.
As experimental groups, the tumor/cancer cells of each cell line were treated with the test tea samples prepared from one or more of the tea products and the comparative test samples prepared from one or more of the commercially available agents as obtained in section B of this example (for more detailed information about the tea product(s) and the commercially available product (s) used to treat each cell line, please see Table 4 below). To be specific, 6 to 10 test tea samples prepared from the same tea product and having different concentrations, as well as 6 to 10 comparative test samples prepared from the same commercially available agent and having different concentrations, were utilized to treat the tumor/cancer cells of each cell line. […]

In experiment [2] the test system is human lung cancer cell line A549. Put plainly: In vitro antitumor/anticancer testing (CCK-8), A549. The class given is cell-based. The conditions noted are these: 48 h. As for the experimental part:
Each of Tea Product 1 and Conventional Tea Product obtained in section A of this example was used to prepare test tea samples according to the method described below. A proper amount of the respective tea product was added into sterile water to prepare a stock solution with a concentration of 100 mg/mL, followed by using a membrane filter with a pore size of 0.22 μm to conduct vacuum filtration and sterilization. The resulting stock solution was diluted with a respective complete medium shown in Table 3 below to form test tea samples with different concentrations. In other words, the thus obtained test tea samples to be used for treating a respective cancer/tumor cell line shown in Table 3 were prepared using the same complete medium as that for the respective cancer/tumor cell line. […] Specifically, each of the aforesaid commercially available agents was subjected to the method described below to prepare comparative test samples. A proper amount of a respective commercially available agent was dissolved in phosphate-buffered saline (PBS) to prepare a stock solution with a concentration of 5 mg/mL, followed by using a membrane filter with a pore size of 0.22 μm to conduct vacuum filtration and sterilization. The resulting stock solution was diluted with a respective complete medium shown in Table 3 below to form comparative test samples with different concentrations. To be specific, the comparative test samples prepared from the respective commercially available agent have the concentrations shown in Table 2 below. The thus obtained comparative test samples to be used for treating a respective cancer/tumor cell line shown in Table 3 were prepared using the same complete medium as that for the respective cancer/tumor cell line. […] The cultivation of each cancer/tumor cell line is described as follows. […] Afterwards, a cell suspension having a cell density of 1.0×10^4 cells/mL was prepared. […] As experimental groups, the tumor/cancer cells of each cell line were treated with the test tea samples prepared from one or more of the tea products and the comparative test samples prepared from one or more of the commercially available agents as obtained in section B of this example (for more detailed information about the tea product(s) and the commercially available product (s) used to treat each cell line, please see Table 4 below). To be specific, 6 to 10 test tea samples prepared from the same tea product and having different concentrations, as well as 6 to 10 comparative test samples prepared from the same commercially available agent and having different concentrations, were utilized to treat the tumor/cancer cells of each cell line. For each experimental group, 6 repetitions of tumor/cancer treatment were performed. For the control group, 100 μL of PBS was added to a well containing the medium and the cancer/tumor cells of the respective cell line. For the blank group, 100 μL of PBS was added to a well containing a complete medium the same as that used for cultivation of the cancer/tumor cells of the respective cell line. After the treatment described above, cultivation was conducted in an incubator (37° C., 100% relative humidity, 5% CO2) for 48 hours. Subsequently, the liquid containing the medium and the sample in the well was removed, and a respective complete medium (shown in Table 3 above) containing 10% CCK-8 (Cell Counting Kit-8)(Dojindo Molecular Technologies, Inc., Cat. No. CK04-13) was added. Cultivation was performed in an incubator (37° C.) for 2 to 4 hours, followed by gently shaking.

The structures appear in SMILES notation. Values after ≈ are worked out from the molar mass of the structure shown.

Regarding `O=c1[nH]cc(F)c(=O)[nH]1` [5-fluorouracil], the inhibition (in general, the change of the read-out against control, counted positive when it falls) at 0.078125 µg/mL in experiment [1] (0.078125 μg/mL, read-out: Percent growth inhibition) was 10.9%. In addition, the inhibition at 0.15625 µg/mL in experiment [1] (0.15625 μg/mL, read-out: Percent growth inhibition) came out at 24.5%. The inhibition at 0.3125 µg/mL in experiment [1] (0.3125 μg/mL, read-out: Percent growth inhibition) is 37.5%. The inhibition at 0.625 µg/mL in experiment [1] (0.625 μg/mL, read-out: Percent growth inhibition) was determined as 63.7%. Also, the inhibition at 1.25 µg/mL in experiment [1] (1.25 μg/mL, read-out: Percent growth inhibition) was 83.3%. Moreover, in experiment [1] (2.5 μg/mL, read-out: Percent growth inhibition), the inhibition at 2.5 µg/mL worked out at 86%. Further, the inhibition at 5 µg/mL in experiment [1] (5 μg/mL, read-out: Percent growth inhibition) amounted to 89.1%. The IC50 in experiment [1] (Table 5 concentration series) came out at 0.457 µg/mL (≈ 3.52 µM).

With `O=C(O[C@@H]1Cc2c(O)cc(O)cc2O[C@@H]1c1cc(O)c(O)c(O)c1)c1cc(O)c(O)c(O)c1` [EGCG monomer, epigallocatechin gallate], the Percent growth inhibition in experiment [2] (0.625 μg/mL) stood at 6.69%; in experiment [2] (1.25 μg/mL) it was 5.92%; in experiment [2] (2.5 μg/mL) it was 7.35%; in experiment [2] (5 μg/mL), 6.76%; in experiment [2] (10 μg/mL) it was 9.62%; in experiment [2] (20 μg/mL), 23.21%. The Percent growth inhibition in experiment [2] (40 μg/mL) is 35.39%; in experiment [2] (80 μg/mL), 60.18%. In experiment [2] (A549), the IC50 entry is “IC50 (μg/mL) = 59.74”.
